Where two headings read alike, the source gives them in different places.
Tests used:
[1] = target: T1, IRAK4 (Homo sapiens (Human), UniProt Q9NWZ3); test: IRAK4 Biochemical HTRF Kinase Assay; settings: read-out: IRAK4 HTRF biochemical: IC50
Procedure, shortened: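 HTRF KinEASE STK S1 format measuring IRAK4 phosphorylation of biotinylated peptide; reaction solution of 5 μM STK-S1, 10 mM ATP, 10 mM MgCl2 added (stock, to 10 μl final), 90 min at ambient temperature, detection 60 min. IC50 from sixteen-point duplicate curves by non-linear regression.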
Target sequence in this assay (Q9NWZ3 whole entry, species assumed): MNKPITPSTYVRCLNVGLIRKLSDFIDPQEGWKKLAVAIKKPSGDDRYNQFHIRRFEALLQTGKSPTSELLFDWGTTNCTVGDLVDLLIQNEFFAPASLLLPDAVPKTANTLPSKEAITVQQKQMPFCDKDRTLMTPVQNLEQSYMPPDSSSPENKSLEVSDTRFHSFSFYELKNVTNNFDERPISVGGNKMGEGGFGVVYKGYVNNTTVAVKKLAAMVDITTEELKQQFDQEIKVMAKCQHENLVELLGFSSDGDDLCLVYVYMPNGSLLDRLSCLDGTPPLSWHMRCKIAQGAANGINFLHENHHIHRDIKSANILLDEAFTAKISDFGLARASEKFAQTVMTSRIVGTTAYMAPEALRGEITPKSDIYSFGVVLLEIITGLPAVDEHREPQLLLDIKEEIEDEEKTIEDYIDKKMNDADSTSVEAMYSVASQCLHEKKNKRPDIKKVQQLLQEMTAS

[2] = target: T1, IRAK4; test: IRAK4 Degradation HiBiT Assay; settings: HiBiT-tagged Jurkat cells, 4 hrs; for Dmax: Jurkat; for DC50: read-out: Cellular IRAK4 HiBiT: DC50
Target sequence in this assay (Q9NWZ3 whole entry): as the sequence (Q9NWZ3 whole entry, species assumed) above

[3] = read-out: Cellular IRAK4 HiBiT: Dmax, Table 4
[4] = read-out: Cellular IRAK4 HiBiT: Dmax, Table 5, multiple runs

Q: With `Cc1ncsc1-c1ccc([C@H](C)NC(=O)[C@@H]2C[C@@H](O)CN2C(=O)[C@@H](NC(=O)CCCCCC(=O)N2CCN(c3nnc(-c4cnc(-c5ccc6cc(C#N)cnn56)cc4NC(C)C)s3)CC2)C(C)(C)C)cc1` [Example 37, (2S,4R)-1-((S)-2-(7-(4-(5-(6-(3-cyanopyrrolo[1,2-b]pyridazin-7-yl)-4-(isopropylamino)pyridin-3-yl)-1,3,4-thiadiazol-2-yl)piperazin-1-yl)-7-oxoheptanamido)-3,3-dimethylbutanoyl)-4-hydroxy-N—((S)-1-(4-(4-methylthiazol-5-yl)phenyl)ethyl)pyrrolidine-2-carboxamide] as the compound, how does the IC50 ([1]; Table 4) read?
A: 6 nM

Q: And the IC50 ([1]; Table 5, multiple runs)?
A: 6 nM

Q: And the Dmax [2, 3]?
A: 98%

Q: And the Dmax [2, 4]?
A: 98%

Q: And the DC50 ([2]; Table 4)?
A: 240 nM

Q: And the DC50 ([2]; Table 5, multiple runs)?
A: 220 nM

Q: With `Cc1ncsc1-c1ccc([C@H](C)NC(=O)[C@@H]2C[C@@H](O)CN2C(=O)[C@@H](NC(=O)CCOCCOCCOCCC(=O)N2CCN(c3nnc(-c4cnc(-c5ccc6cc(C#N)cnn56)cc4NC(C)C)s3)CC2)C(C)(C)C)cc1` [Example 78, (2S,4R)-1-((S)-2-(tert-butyl)-16-(4-(5-(6-(3-cyanopyrrolo[1,2-b]pyridazin-7-yl)-4-(isopropylamino)pyridin-3-yl)-1,3,4-thiadiazol-2-yl)piperazin-1-yl)-4,16-dioxo-7,10,13-trioxa-3-azahexadecanoyl)-4-hydroxy-N—((S)-1-(4-(4-methylthiazol-5-yl)phenyl)ethyl)pyrrolidine-2-carboxamide] as the compound, how does the IC50 ([1]; Table 5, multiple runs) read?
A: 2.4 nM

Q: What about the Dmax [2, 4] of the same compound?
A: 74%

Q: And the DC50 ([2]; Table 5, multiple runs)?
A: 332 nM

Q: `CNc1cc(-c2ccc3cc(C#N)cnn23)ncc1-c1nnc(N2CCC(NC(=O)C[C@H](NC(=O)[C@@H]3C[C@@H](O)CN3C(=O)[C@@H](NC(=O)C3(F)CC3)C(C)(C)C)c3ccc(-c4scnc4C)cc3)CC2)s1` [Example 146, (2S,4R)—N—((S)-3-((1-(5-(6-(3-cyanopyrrolo[1,2-b]pyridazin-7-yl)-4-(methylamino)pyridin-3-yl)-1,3,4-thiadiazol-2-yl)piperidin-4-yl)amino)-1-(4-(4-methylthiazol-5-yl)phenyl)-3-oxopropyl)-1-((S)-2-(1-fluorocyclopropane-1-carboxamido)-3,3-dimethylbutanoyl)-4-hydroxypyrrolidine-2-carboxamide] was tested. Which IC50 ([1]; Table 5, multiple runs) did it give?
A: 2.9 nM

Q: What about the Dmax [2, 4] of the same compound?
A: 77%

Q: What about the DC50 ([2]; Table 5, multiple runs) of the same compound?
A: 231 nM

Q: How did the IC50 ([1]; Table 4) turn out when `CN[C@@H](C)C(=O)N[C@H](C(=O)N1CCC[C@H]1c1nc(C(=O)c2cccc(OCCOCCOCCOCCC(=O)N3CCN(c4nnc(-c5cnc(-c6ccc7cc(C#N)cnn67)cc5NC(C)C)s4)CC3)c2)cs1)C1CCCCC1` [Example 55, (S)—N—((S)-2-((S)-2-(4-(3-(2-(2-(2-(3-(4-(5-(6-(3-cyanopyrrolo[1,2-b]pyridazin-7-yl)-4-(isopropylamino)pyridin-3-yl)-1,3,4-thiadiazol-2-yl)piperazin-1-yl)-3-oxopropoxy)ethoxy)ethoxy)ethoxy)benzoyl)thiazol-2-yl)pyrrolidin-1-yl)-1-cyclohexyl-2-oxoethyl)-2-(methylamino)propanamide] was run?
A: 6.6 nM

Q: What about the IC50 ([1]; Table 5, multiple runs) of the same compound?
A: 6.6 nM

Q: And the Dmax [2, 3]?
A: 45%

Q: What about the Dmax [2, 4] of the same compound?
A: 45%

Q: What about the DC50 ([2]; Table 4) of the same compound?
A: 934 nM

Q: And the DC50 ([2]; Table 5, multiple runs)?
A: 937 nM

Q: Which results are given for `CNc1cc(-c2ccc3cc(C#N)cnn23)ncc1-c1nnc([C@H]2CC[C@H](N(C)C[C@@H]3CCN(c4ccc5c(c4)C(=O)N(C4CCC(=O)NC4=O)C5=O)C3)CC2)s1` (stereo partly drawn) [Example 171, 7-(5-(5-((1S,4r)-4-((((3S)-1-(2-(2,6-dioxopiperidin-3-yl)-1,3-dioxoisoindolin-5-yl)pyrrolidin-3-yl)methyl)(methyl)amino)cyclohexyl)-1,3,4-thiadiazol-2-yl)-4-(methylamino)pyridin-2-yl)pyrrolo[1,2-b]pyridazine-3-carbonitrile]?
A: IC50 ([1]; Table 5, multiple runs): 0.4 nM; Dmax [2, 4]: 77%; DC50 ([2]; Table 5, multiple runs): 12.9 nM

Q: How did the IC50 ([1]; Table 5, multiple runs) turn out when `CNc1cc(-c2ccc3cc(C#N)cnn23)ncc1-c1nnc(N2CCN(C[C@H]3CCN(c4ccc5c(c4)n(C)c(=O)n5C4CCC(=O)NC4=O)C3)CC2)s1` (stereo partly drawn) [Example 91, 7-(5-(5-(4-(((3R)-1-(1-(2,6-dioxopiperidin-3-yl)-3-methyl-2-oxo-2,3-dihydro-1H-benzo[d]imidazol-5-yl)pyrrolidin-3-yl)methyl)piperazin-1-yl)-1,3,4-thiadiazol-2-yl)-4-(methylamino)pyridin-2-yl)pyrrolo[1,2-b]pyridazine-3-carbonitrile] was run?
A: 1.6 nM

Q: What about the DC50 ([2]; Table 5, multiple runs) of the same compound?
A: > 970 nM

Q: How did the IC50 ([1]; Table 4) turn out when `CC(C)Nc1cc(-c2ccc3cc(C#N)cnn23)ncc1-c1nnc(N2CCN(CCCc3ccc4c(c3)CN(C3CCC(=O)NC3=O)C4=O)CC2)s1` (centres unmarked) [Example 27, 7-(5-(5-(4-(3-(2-(2,6-dioxopiperidin-3-yl)-1-oxoisoindolin-5-yl)propyl)piperazin-1-yl)-1,3,4-thiadiazol-2-yl)-4-(isopropylamino)pyridin-2-yl)pyrrolo[1,2-b]pyridazine-3-carbonitrile] was run?
A: 0.3 nM

Q: What about the IC50 ([1]; Table 5, multiple runs) of the same compound?
A: 1.2 nM

Q: And the Dmax [2, 3]?
A: 57%

Q: What about the Dmax [2, 4] of the same compound?
A: 57%

Q: And the DC50 ([2]; Table 4)?
A: 70.6 nM

Q: What about the DC50 ([2]; Table 5, multiple runs) of the same compound?
A: 70.7 nM

Q: With `CNc1cc(-c2ccc3cc(C#N)cnn23)ncc1-c1nnc([C@H]2CC[C@H](N(C)C(=O)C3CCN(c4ccc5c(c4)C(=O)N(C4CCC(=O)NC4=O)C5=O)CC3)CC2)s1` (some centres unmarked) [Example 169, N-((1r,4r)-4-(5-(6-(3-cyanopyrrolo[1,2-b]pyridazin-7-yl)-4-(methylamino)pyridin-3-yl)-1,3,4-thiadiazol-2-yl)cyclohexyl)-1-(2-(2,6-dioxopiperidin-3-yl)-1,3-dioxoisoindolin-5-yl)-N-methylpiperidine-4-carboxamide] as the compound, how does the IC50 ([1]; Table 5, multiple runs) read?
A: 0.8 nM

Q: What about the Dmax [2, 4] of the same compound?
A: 104%

Q: And the DC50 ([2]; Table 5, multiple runs)?
A: 32 nM

Q: Which results are given for `CCN(C(=O)C[C@H](NC(=O)[C@@H]1C[C@@H](O)CN1C(=O)C(c1cc(C)no1)C(C)C)c1ccc(-c2scnc2C)cc1)[C@H]1CC[C@H](c2nnc(-c3cnc(-c4ccc5cc(C#N)cnn45)cc3NC)s2)CC1` (stereo partly drawn) [Example 192, (2S,4R)—N—((S)-3-(((1r,4S)-4-(5-(6-(3-cyanopyrrolo[1,2-b]pyridazin-7-yl)-4-(methylamino)pyridin-3-yl)-1,3,4-thiadiazol-2-yl)cyclohexyl)(ethyl)amino)-1-(4-(4-methylthiazol-5-yl)phenyl)-3-oxopropyl)-4-hydroxy-1-(3-methyl-2-(3-methylisoxazol-5-yl)butanoyl)pyrrolidine-2-carboxamide]?
A: IC50 ([1]; Table 5, multiple runs): 1.4 nM; Dmax [2, 4]: 103%; DC50 ([2]; Table 5, multiple runs): 50.6 nM

Q: With `CNc1cc(-c2ccc3cc(C#N)cnn23)ncc1-c1nnc(N2CCC(C3CCN(C(=O)CN4CCN(c5ccc6c(c5)C(=O)N(C5CCC(=O)NC5=O)C6=O)CC4)CC3)CC2)s1` (centres unmarked) [Example 185, 7-(5-(5-(1′-(2-(4-(2-(2,6-dioxopiperidin-3-yl)-1,3-dioxoisoindolin-5-yl)piperazin-1-yl)acetyl)-[4,4′-bipiperidin]-1-yl)-1,3,4-thiadiazol-2-yl)-4-(methylamino)pyridin-2-yl)pyrrolo[1,2-b]pyridazine-3-carbonitrile] as the compound, how does the IC50 ([1]; Table 5, multiple runs) read?
A: 1.5 nM

Q: And the Dmax [2, 4]?
A: 89%

Q: What about the DC50 ([2]; Table 5, multiple runs) of the same compound?
A: 126 nM

Q: With `CNc1cc(-c2ccc3cc(C#N)cnn23)ncc1-c1nnc(C23CCC(NC(=O)CCCCCNc4ccc5c(c4)C(=O)N(C4CCC(=O)NC4=O)C5=O)(CC2)CC3)s1` (centres unmarked) [Example 108, N-(4-(5-(6-(3-cyanopyrrolo[1,2-b]pyridazin-7-yl)-4-(methylamino)pyridin-3-yl)-1,3,4-thiadiazol-2-yl)bicyclo[2.2.2]octan-1-yl)-6-((2-(2,6-dioxopiperidin-3-yl)-1,3-dioxoisoindolin-5-yl)amino)hexanamide] as the compound, how does the IC50 ([1]; Table 5, multiple runs) read?
A: 1.4 nM

Q: What about the Dmax [2, 4] of the same compound?
A: 70%

Q: What about the DC50 ([2]; Table 5, multiple runs) of the same compound?
A: 45.7 nM

Reference: patent US12528814B2, “Bifunctional degraders of interleukin-1 receptor-associated kinases and therapeutic use thereof” (NURIX THERAPEUTICS, INC., priority 2020, dated 2026)
